Among the test systems are BT-549 breast; SNB-75 CNS; SK-OV-3 ovarian; SF-268 CNS; HT29 colon; TK-10 renal; HCT-15 colon; HCC-2998 colon; UACC-257 melanoma; SR leukemia.
Assay in all cases: DTP human tumour cell line panel, 48 h

From PubChem BioAssay (NCI) come the findings set out here.

SMILES strings stand for the structures.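 Method: 48-hour compound exposure of cells in 96-well plates, five concentrations, linear interpolation of endpoints. Abbreviation: GI50, concentration required for 50% inhibition of growth. TGI denotes the concentration required for complete inhibition of growth.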

On to `CC1CCc2nc[nH]c(=O)c21` (configuration not stated), for which the GI50 in the assay on BT-549 breast, in the assay with SNB-75 CNS, with SK-OV-3 ovarian, with SF-268 CNS, in the assay with HT29 colon and in the assay on TK-10 renal was > 100 µM each time. Moreover, the GI50 with HCT-15 colon and in the assay on HCC-2998 colon was > 100 µM each time. Moreover, the TGI in the assay on BT-549 breast, in the assay on SNB-75 CNS, in the assay on SK-OV-3 ovarian, in the assay with SF-268 CNS, in the assay on HT29 colon and in the assay with TK-10 renal was > 100 µM each time. The TGI in the assay on HCT-15 colon and in the assay on HCC-2998 colon was > 100 µM each time.
For `C=CCO[C@H]1CO[C@H]2[C@@H]1OC[C@@H]2Oc1ccc(Nc2ccnc(Nc3ccc(O[C@H]4CO[C@H]5[C@@H]4OC[C@@H]5OCC=C)c(Cl)c3)n2)cc1Cl`, the GI50 was 1.6 µM in the assay with BT-549 breast; 1.86 µM in the assay on SNB-75 CNS; 16.8 µM in the assay on SK-OV-3 ovarian; 1.98 µM in the assay on SF-268 CNS; 2.08 µM with HT29 colon; 1.86 µM in the assay with TK-10 renal. Also, the values for the GI50 in the assay with HCT-15 colon, in the assay with UACC-257 melanoma and in the assay with HCC-2998 colon were 1.48 µM, 1.83 µM and 1.94 µM, respectively. The TGI in the assay with BT-549 breast stood at 3.11 µM; in the assay with SNB-75 CNS, 3.31 µM; with SK-OV-3 ovarian, 31.2 µM; in the assay on SF-268 CNS, 3.76 µM; in the assay on HT29 colon, 4.99 µM; in the assay with TK-10 renal, 3.63 µM. The TGI was 3.06 µM with HCT-15 colon, 3.69 µM in the assay with UACC-257 melanoma and 3.43 µM in the assay with HCC-2998 colon.
On to `Nc1nc(-n2c(-c3ccccc3)nc3c(Br)cc(Br)cc3c2=O)nnc1-c1cccc(Cl)c1Cl`, for which the GI50 was 19.1 µM in the assay with BT-549 breast; 8.65 µM in the assay with SNB-75 CNS; 27.2 µM with SK-OV-3 ovarian; 20.3 µM with SF-268 CNS; 4.82 µM in the assay with HT29 colon; 3.96 µM with TK-10 renal. Further, the GI50 with HCT-15 colon was 3.1 µM; in the assay on UACC-257 melanoma, 22.3 µM; in the assay with HCC-2998 colon it was 3.42 µM. For the same compound, the TGI in the assay with BT-549 breast was > 100 µM; in the assay on SNB-75 CNS, 46.7 µM; with SK-OV-3 ovarian, > 100 µM; in the assay with SF-268 CNS it was > 100 µM; in the assay on HT29 colon, > 100 µM; in the assay on TK-10 renal it was 20.8 µM. The TGI in the assay with HCT-15 colon was 21.9 µM; in the assay on UACC-257 melanoma, > 100 µM; in the assay with HCC-2998 colon, 15.5 µM.
In the case of `Cc1ccsc1C(=S)Nc1ccc(Cl)c(/C=N/OC(C)(C)C)c1`, the TGI is 59.8 µM in the assay with BT-549 breast; > 100 µM with SK-OV-3 ovarian; > 100 µM with SF-268 CNS; 27.1 µM in the assay on HT29 colon; 41.1 µM in the assay on TK-10 renal; > 100 µM in the assay on HCT-15 colon. Also, the TGI was determined as 69.1 µM in the assay on UACC-257 melanoma, 48.5 µM in the assay with HCC-2998 colon and 61.7 µM in the assay with SR leukemia.
With `CCOC(=O)Cn1c(C(F)(F)F)nc2nc(Cl)c(Cl)nc21`, the TGI in the assay with BT-549 breast, with SNB-75 CNS, in the assay on SK-OV-3 ovarian, with SF-268 CNS, with HT29 colon and in the assay with TK-10 renal was > 100 µM in each case. The TGI is > 100 µM in the assay on HCT-15 colon, 53.4 µM in the assay with UACC-257 melanoma and > 100 µM in the assay on SR leukemia.
With `CCN(CC)N=Nc1c(C(N)=O)n[nH]c1C`, the TGI was > 100 µM in the assay on BT-549 breast; > 100 µM in the assay on SNB-75 CNS; 97.9 µM with SK-OV-3 ovarian; > 100 µM in the assay with SF-268 CNS; > 100 µM in the assay with HT29 colon; > 100 µM in the assay with TK-10 renal. The TGI with HCT-15 colon, in the assay with UACC-257 melanoma and in the assay with HCC-2998 colon was > 100 µM throughout.
In the case of `Cc1nc2sccn2c1-c1csc(Nc2ccccc2Cl)n1`, the GI50 is 3.6 µM in the assay with BT-549 breast; 4.08 µM in the assay with SNB-75 CNS; 8.4 µM in the assay on SK-OV-3 ovarian; 8.33 µM with SF-268 CNS; 3.08 µM with HT29 colon; 4.44 µM in the assay with TK-10 renal. In addition, the GI50 with HCT-15 colon is 2.64 µM; with UACC-257 melanoma, 3.69 µM; in the assay on HCC-2998 colon, 6.25 µM. Moreover, the TGI in the assay with BT-549 breast came to 23.4 µM; in the assay on SNB-75 CNS it was 60.3 µM; with SK-OV-3 ovarian, 75.2 µM; in the assay with SF-268 CNS, 86.5 µM; with HT29 colon it was 13.6 µM; in the assay on TK-10 renal, 48.8 µM. Besides, the TGI in the assay with HCT-15 colon came to 32.5 µM; in the assay on UACC-257 melanoma, 17.9 µM; in the assay with HCC-2998 colon, 45.3 µM.
With `CCN1CCN(Cc2ccc(NC(=O)c3cccc(C#Cc4cccc5[nH]nc(N)c45)c3)cc2C(F)(F)F)CC1`, the GI50 with BT-549 breast was 1.1 µM; in the assay on SNB-75 CNS, 0.184 µM; in the assay with SK-OV-3 ovarian it was 0.802 µM; in the assay with SF-268 CNS, 0.62 µM; in the assay on HT29 colon, 0.118 µM; with TK-10 renal, 0.631 µM. Further, the GI50 in the assay on UACC-257 melanoma was 1.05 µM; with SR leukemia, 0.238 µM. The TGI was found to be 2.41 µM in the assay on BT-549 breast; 0.89 µM in the assay with SNB-75 CNS; 2.2 µM in the assay on SK-OV-3 ovarian; 2.01 µM in the assay with SF-268 CNS; 1.16 µM in the assay on HT29 colon; 1.75 µM in the assay with TK-10 renal. The TGI was 2.82 µM in the assay with UACC-257 melanoma and 0.732 µM in the assay on SR leukemia.
Take `CNC(=S)OCCC(C)CCCC(C)C` (configuration not stated): the TGI is 40.6 µM in the assay with SNB-75 CNS; 41.6 µM in the assay with SK-OV-3 ovarian; 30.7 µM in the assay with SF-268 CNS; 31.3 µM with HT29 colon; 25.5 µM with TK-10 renal; 27.9 µM with HCT-15 colon. In addition, the figures for the TGI in the assay with UACC-257 melanoma, in the assay with HCC-2998 colon and with SR leukemia were 30.1 µM, 32.2 µM and 31.9 µM, respectively.
For the compound `CCCCCCCCCCCC(=O)OCCOCCOCCOCCOCCOCc1ccccc1`, the TGI in the assay on SNB-75 CNS, in the assay with SK-OV-3 ovarian, with SF-268 CNS, with HT29 colon, in the assay with TK-10 renal and with HCT-15 colon was > 100 µM throughout. Besides, the TGI in the assay on UACC-257 melanoma, with HCC-2998 colon and with SR leukemia was > 100 µM each time.
Turning to `CC(=O)OC1OC([C@@H]2c3cccc(O)c3C(=O)c3c(O)cc(C)cc32)C(O)C(O)C1O` (some centres not stated), the GI50 was 0.0181 µM in the assay on BT-549 breast; 0.134 µM in the assay on SK-OV-3 ovarian; 0.106 µM in the assay with SF-268 CNS; 0.059 µM in the assay on HT29 colon; 0.0286 µM in the assay with TK-10 renal; 0.0305 µM in the assay on HCT-15 colon. The GI50 is 0.0951 µM with UACC-257 melanoma, < 0.01 µM in the assay on HCC-2998 colon and 0.032 µM in the assay with SR leukemia. Further, the concentration for total growth inhibition (TGI) with BT-549 breast is 0.778 µM; with SK-OV-3 ovarian, 3.17 µM; in the assay with SF-268 CNS, 4.52 µM; in the assay on HT29 colon, > 100 µM; in the assay on TK-10 renal it was 0.26 µM; in the assay with HCT-15 colon, 1.46 µM. Further, the TGI in the assay on UACC-257 melanoma stood at 1.33 µM; in the assay with SR leukemia, 0.0859 µM.
As for `Cc1cnc(NCCCN(C)C)c2c1[nH]c1ccc3cc(O)ccc3c12`, the TGI in the assay with BT-549 breast amounted to 3.12 µM; in the assay with SNB-75 CNS, 1.87 µM; in the assay with SK-OV-3 ovarian it was 2.75 µM; with SF-268 CNS, 2.07 µM; with HT29 colon it was 2.53 µM; in the assay on TK-10 renal it was 15.8 µM. In addition, the TGI in the assay on HCT-15 colon is 17 µM; in the assay with UACC-257 melanoma it was 11.5 µM; in the assay with HCC-2998 colon, 1.98 µM.
As for `CO/C(=N\N=C\c1ccc(C(F)(F)F)cc1)c1ccncc1`, the TGI in the assay with BT-549 breast, with SF-268 CNS, in the assay on HT29 colon, in the assay on TK-10 renal, with HCT-15 colon and in the assay on UACC-257 melanoma was > 10 µM in each case. Besides, the TGI in the assay on HCC-2998 colon and with SR leukemia was > 10 µM throughout.
`COC(=O)CC[N+]1=CCC(c2ccccc2)(c2ccccc2)O1`: the TGI with BT-549 breast, in the assay with SK-OV-3 ovarian, with SF-268 CNS, with HT29 colon, in the assay on TK-10 renal and in the assay on HCT-15 colon was > 100 µM throughout. Further, the TGI in the assay on UACC-257 melanoma and with HCC-2998 colon was > 100 µM in each case.
On to `CCOC1Oc2ccccc2C(=O)/C1=C/Nc1ccc(C(C)=O)cc1` (configuration not stated), for which the GI50 in the assay with BT-549 breast is 29 µM; in the assay with SNB-75 CNS, 40.6 µM; in the assay with SK-OV-3 ovarian it was 44.4 µM; with SF-268 CNS it was 33.7 µM; in the assay with HT29 colon it was 36.3 µM; in the assay with HCT-15 colon, 17.4 µM. For the same compound, the results for the GI50 in the assay on UACC-257 melanoma and with HCC-2998 colon were 19.7 µM and 15.9 µM, respectively. For the same compound, the TGI is 92.3 µM in the assay on BT-549 breast; > 100 µM in the assay on SNB-75 CNS; > 100 µM with SK-OV-3 ovarian; > 100 µM in the assay with SF-268 CNS; > 100 µM in the assay on HT29 colon; 46.3 µM in the assay on HCT-15 colon. In addition, the TGI in the assay with UACC-257 melanoma worked out at 46.9 µM; with HCC-2998 colon, 35.4 µM.
Take `CN(C)C(=S)N=C(Nc1ccccc1)Nc1ccccc1`: the TGI in the assay on SNB-75 CNS, with SK-OV-3 ovarian, with SF-268 CNS, in the assay on HT29 colon, in the assay with TK-10 renal and with HCT-15 colon was > 100 µM throughout. For the same compound, the TGI with UACC-257 melanoma, with HCC-2998 colon and in the assay with SR leukemia was > 100 µM in each case.
Take `COc1cc2cc(OC)c3cc4c(cc3c2c(OC)c1OC)OCO4`: the TGI in the assay on SNB-75 CNS is > 46.1 µM; in the assay on SK-OV-3 ovarian, > 100 µM; with SF-268 CNS, > 100 µM; in the assay on HT29 colon it was 30.7 µM; in the assay on TK-10 renal, > 84.4 µM; in the assay with HCT-15 colon, > 51.1 µM. The TGI with UACC-257 melanoma was > 100 µM; in the assay with HCC-2998 colon, 25.8 µM; with SR leukemia, 82.6 µM.

Usually GI50 stands for the concentration that inhibits growth by half. A word on the TGI: it is the concentration at which net growth stops. A high value points to less potent growth arrest.
